Values of other authors, collected in US20070172525A1, “Anti-diabetic combinations” (priority 2007, published 2007).

Tests used:
[1] = tested on: patients with T2DM
[2] = tested on: patients with T2DM; remark: listed apart in the source
[3] = tested on: patients with T2DM; remark: listed apart in the source
[4] = oral
[5] = monotherapy, 100 or 200 mg daily
[6] = sitagliptin 100 mg daily added to metformin

Time to complete gastrointestinal absorption after ingestion [4] [h] | SMILES | Weight gain ([1]; 24-week monotherapy studies) | HbA1C [1, 5] | Hypoglycemia [1, 5] | Patients achieved a HbA1C of <7% ([2]; 24 weeks, sitagliptin 100 mg daily plus pioglitazone versus pioglitazone alone) [%] | Mean HbA1C reduction ([2]; sitagliptin 100 mg daily added to pioglitazone (30 or 45 mg daily), 24 weeks, mean HbA1C 8.1%) [%] | Rates of hypoglycemia or weight gain relative to pioglitazone alone ([2]; sitagliptin added to pioglitazone) | Patients achieving a HbA1C of <7% ([3]; sitagliptin 100 mg daily added to at least 1,500 mg per day of metformin, mean HbA1C of 8%) [%] | Fasting glucose [3, 6] | Mean placebo-subtracted reduction in HbA1C [3, 6] [%]
– | N[C@@H](CC(=O)N1CCn2c(nnc2C(F)(F)F)C1)Cc1cc(F)c(F)cc1F [Sitagliptin] | no significant weight gain | significantly reduced | no significant increase | 45.4 | 0.7 | not associated with increased rates | 47 | significant reductions | 0.65
≤ 6 | CN(C)C(=N)N=C(N)N [Conventional Metformin, Metformin] | – | – | – | – | – | – | – | – | –
